Ten compounds from patent publication US6777425B2, “Isoquinoline compounds having antiinfective activity” (Genesoft Pharmaceuticals, Inc., priority 2001, dated 2004) can be followed below.

Experiment [1] relates to methicillin resistant Staphylococcus aureus ATCC 33591. The experiment in a line: Murine neutropenic thigh model. It counts as in vivo. As to conditions: thigh at 6 hr, neutropenic CF1 mice. On the procedure: The suspension was diluted 1:100 in phosphate buffered saline (pH 7.2) for a final concentration of 10^6 cfu/mL.
Outbred female CF1 mice (approx. 20 gram body weight) were rendered neutropenic by treatment with cyclophosphamide (200 mg/kg body weight, intraperitoneal injection) at 2 and 4 days prior to inoculation. Groups of 5 mice were inoculated with 0.05 mL of the bacteria (approx. 10^6 cfu/mL) into the anterior thigh. Each group was treated intravenously two hours post infection with vehicle (phosphate buffered saline) or test compound. The mice were sacrificed at either 6 or 24 hrs after treatment and thighs were collected aseptically. Each thigh was weighed, placed into sterile saline, and homogenized. The tissue homogenates were diluted appropriately for plating on agar plates. Colony counts were recorded (cfu/gram) and compared to control groups.

The next experiment concerns S. aureus ATCC 13709. Kind of experiment: NCCLS broth microdilution MIC, S. aureus (MSSA). It counts as cell-based, Staphylococcus aureus. As to conditions: organism E = S. aureus ATCC 13709 (MSSA). The text has this: (§1) Compounds according to this invention were screened for their in vitro activities against selected species of bacteria and fungi. […]
(In general: In broth dilution the organism is exposed to a series of concentrations in liquid medium.)

The next experiment concerns B. cereus ATCC 11778. Kind of experiment: NCCLS broth microdilution MIC, B. cereus. It counts as cell-based, Bacillus cereus. As to conditions: organism A = B. cereus ATCC 11778.
From the text: as §1

Another experiment has as its system C. albicans ATCC 38247. The experiment in a line: Antifungal MIC, C. albicans. It counts as cell-based, Candida albicans. The conditions noted are these: organism B = C. albicans ATCC 38247.
From the text: as §1

For a further experiment, the system named is E. faecalis ATCC 29212. The experiment in a line: NCCLS broth microdilution MIC, E. faecalis. The conditions noted are these: organism C = E. faecalis ATCC 29212. It counts as cell-based.
From the text: as §1

In another experiment the test system is S. pneumoniae ATCC 49619. Kind of experiment: NCCLS broth microdilution MIC, S. pneumoniae ATCC 49619. It counts as cell-based, Streptococcus pneumoniae. As to conditions: organism H = S. pneumoniae ATCC 49619.
From the text: as §1

In the next experiment the test system is S. aureus ATCC 27660. Kind of experiment: NCCLS broth microdilution MIC, S. aureus (MRSA). It counts as cell-based, Staphylococcus aureus. The conditions noted are these: organism F = S. aureus ATCC 27660 (MRSA).
From the text: as §1

The next experiment deals with E. faecium ATCC 51559. Kind of experiment: NCCLS broth microdilution MIC, E. faecium (VRE). It counts as cell-based, Enterococcus faecium. The conditions noted are these: organism D = E. faecium ATCC 51559 (VRE).
From the text: as §1

Another experiment concerns S. pneumoniae ATCC 51422. The experiment in a line: NCCLS broth microdilution MIC, S. pneumoniae (PRSP). The conditions noted are these: organism I = S. pneumoniae ATCC 51422 (PRSP). It counts as cell-based, Streptococcus pneumoniae.
From the text: as §1

In experiment [2] the test system is S. epidermidis ATCC 12228. Kind of experiment: NCCLS broth microdilution MIC, S. epidermidis. It counts as cell-based, Staphylococcus epidermidis. The conditions noted are these: organism G = S. epidermidis ATCC 12228.
From the text: as §1

Where [3] appears, read: 50 mg/kg intravenously two hours post infection.
[4] abbreviates: Staphylococcus aureus, read-out: Minimum Inhibitory Concentration (MIC).

Regarding `Cn1cc(NC(=O)c2cc(NC(=O)c3cc(NC(=O)c4cc5ccccc5cn4)cn3C)c[nH]2)cc1C(=O)NCCN1CCOCC1` [Ib-67], the “Colony Count (log cfu/gram), Compound” value is on record as 6.61 log cfu/gram in experiment [1] (25 mg/kg intravenously two hours post infection) and 5.79 log cfu/gram in experiment [1] (setting [3]). Moreover, the “Minimum Inhibitory Concentration (MIC)” value in the experiment on S. aureus ATCC 13709 was “+++ (+++ = MIC ≦ 4)”; in the experiment with B. cereus ATCC 11778, “+++ (+++ = MIC ≦ 4)”; in the experiment with C. albicans ATCC 38247 it was above 32 µg/mL; with E. faecalis ATCC 29212 it was “+++ (+++ = MIC ≦ 4)”; in the experiment with S. pneumoniae ATCC 49619, “+++ (+++ = MIC ≦ 4)”; with S. aureus ATCC 27660 it was “+++ (+++ = MIC ≦ 4)”.
As to `Cn1cc(NC(=O)c2cc3ccccc3cn2)cc1C(=O)Nc1cc(C(=O)Nc2cc(C(=O)NCCN3CCCCC3)n(CCN3CCCCC3)c2)n(C)c1` [Ib-68], in [1] (setting [3]), the “Colony Count (log cfu/gram), Compound” value was found to be 6.36 log cfu/gram. Also, the “Minimum Inhibitory Concentration (MIC)” value in the experiment with S. aureus ATCC 13709 is “+++ (+++ = MIC ≦ 4)”; with B. cereus ATCC 11778 it was “+++ (+++ = MIC ≦ 4)”; in the experiment on C. albicans ATCC 38247 it was “+ (+ = 12 ≦ MIC ≦ 32)”; in the experiment with E. faecalis ATCC 29212, “+++ (+++ = MIC ≦ 4)”; in the experiment with S. pneumoniae ATCC 49619 it was “+++ (+++ = MIC ≦ 4)”; in the experiment with S. aureus ATCC 27660, “+++ (+++ = MIC ≦ 4)”.
Turning to `Cc1cc(NC(=O)c2cc(NC(=O)c3cc(NC(=O)c4cc5ccccc5cn4)cn3C)cn2CCCN(C)C)sn1` [Ib-66], the “Colony Count (log cfu/gram), Compound” value in [1] (setting [3]) was determined as 6.66 log cfu/gram. In addition, the “Minimum Inhibitory Concentration (MIC)” value in the experiment with S. aureus ATCC 13709 is on record as “+++ (+++ = MIC ≦ 4)”; with B. cereus ATCC 11778 it was “+++ (+++ = MIC ≦ 4)”; in the experiment with C. albicans ATCC 38247 it was “+++ (+++ = MIC ≦ 4)”; with E. faecium ATCC 51559 it was “++ (++ = 4 < MIC < 12)”; in the experiment on E. faecalis ATCC 29212, “+++ (+++ = MIC ≦ 4)”; with S. pneumoniae ATCC 51422 it was “+++ (+++ = MIC ≦ 4)”. Moreover, the “Minimum Inhibitory Concentration (MIC)” value (in the experiment on S. pneumoniae ATCC 49619; in experiment [2]; in the experiment on S. aureus ATCC 27660) was “+++ (+++ = MIC ≦ 4)” throughout.
Regarding `Cn1cc(NC(=O)c2ccc(NC(=O)c3cc(NC(=O)c4cc5ccccc5cn4)cn3C)cc2)cc1C(=O)NCCN1CCC(F)CC1` [Ic-3], the “Minimum Inhibitory Concentration (MIC)” value with S. aureus ATCC 13709 was “+++ (+++ = MIC ≦ 4)”; in the experiment with B. cereus ATCC 11778 it was “+++ (+++ = MIC ≦ 4)”; with C. albicans ATCC 38247 it was above 32 µg/mL; in the experiment with E. faecium ATCC 51559, “+++ (+++ = MIC ≦ 4)”; in the experiment on E. faecalis ATCC 29212, “+++ (+++ = MIC ≦ 4)”; in the experiment with S. pneumoniae ATCC 51422, “+++ (+++ = MIC ≦ 4)”. The “Minimum Inhibitory Concentration (MIC)” value (in the experiment on S. pneumoniae ATCC 49619; in experiment [2]; in the experiment with S. aureus ATCC 27660) was “+++ (+++ = MIC ≦ 4)” in each case.
For `Cn1cc(NC(=O)c2ccc(NC(=O)c3cc(NC(=O)c4cc5ccccc5cn4)cn3C)cc2)cc1C(=O)NCCN1CCC(F)(F)CC1` [Ic-4], the “Minimum Inhibitory Concentration (MIC)” value in the experiment with S. aureus ATCC 13709 is “+++ (+++ = MIC ≦ 4)”; in the experiment on B. cereus ATCC 11778, “+++ (+++ = MIC ≦ 4)”; in the experiment with C. albicans ATCC 38247 it was above 32 µg/mL; with E. faecium ATCC 51559, “+++ (+++ = MIC ≦ 4)”; with E. faecalis ATCC 29212, “+++ (+++ = MIC ≦ 4)”; in the experiment on S. pneumoniae ATCC 51422 it was “+++ (+++ = MIC ≦ 4)”. The “Minimum Inhibitory Concentration (MIC)” value (with S. pneumoniae ATCC 49619; in experiment [2]; with S. aureus ATCC 27660) was “+++ (+++ = MIC ≦ 4)” in each case.
`Cn1cc(NC(=O)c2cc3ccccc3cn2)cc1C(=O)Nc1cc(C(=O)Nc2cc(C(=O)NCCN3CCOCC3)ns2)n(C)c1` [Ib-52]: the “Minimum Inhibitory Concentration (MIC)” value in the experiment with S. aureus ATCC 13709 is “+++ (+++ = MIC ≦ 4)”; in the experiment on B. cereus ATCC 11778, “+++ (+++ = MIC ≦ 4)”; with C. albicans ATCC 38247, above 32 µg/mL; in the experiment on E. faecium ATCC 51559, “+++ (+++ = MIC ≦ 4)”; in the experiment on E. faecalis ATCC 29212, “+++ (+++ = MIC ≦ 4)”; in the experiment on S. pneumoniae ATCC 51422 it was “+++ (+++ = MIC ≦ 4)”. For the same compound, the “Minimum Inhibitory Concentration (MIC)” value (in the experiment on S. pneumoniae ATCC 49619; in [2]; with S. aureus ATCC 27660) was “+++ (+++ = MIC ≦ 4)” each time.
As to `Cn1cc(NC(=O)c2cc3ccccc3cn2)cc1C(=O)Nc1cc(C(=O)Nc2c[nH]c(C(=O)NCCN3CCSCC3)c2)n(C)c1` [Ib-54], the “Minimum Inhibitory Concentration (MIC)” value in the experiment on S. aureus ATCC 13709 is “+++ (+++ = MIC ≦ 4)”; in the experiment on B. cereus ATCC 11778, “+++ (+++ = MIC ≦ 4)”; in the experiment on C. albicans ATCC 38247 it was above 32 µg/mL; in the experiment on E. faecium ATCC 51559, “+++ (+++ = MIC ≦ 4)”; in the experiment with E. faecalis ATCC 29212, “+++ (+++ = MIC ≦ 4)”; with S. pneumoniae ATCC 51422, “+++ (+++ = MIC ≦ 4)”. Moreover, the results for the “Minimum Inhibitory Concentration (MIC)” value (in the experiment on S. pneumoniae ATCC 49619; in [2]; in the experiment on S. aureus ATCC 27660) were “+++ (+++ = MIC ≦ 4)”, “++ (++ = 4 < MIC < 12)” and “+++ (+++ = MIC ≦ 4)”, respectively.
In the case of `Cn1cc(NC(=O)c2cc(NC(=O)c3cc(NC(=O)c4cc5ccccc5cn4)cn3C)c[nH]2)cc1C(=O)NCCN1CCCC1` [Ib-84], the “Minimum Inhibitory Concentration (MIC)” value with S. aureus ATCC 13709 is listed as “+++ (+++ = MIC ≦ 4)”; with B. cereus ATCC 11778, “+++ (+++ = MIC ≦ 4)”; in the experiment on C. albicans ATCC 38247, “+ (+ = 12 ≦ MIC ≦ 32)”; in the experiment with E. faecium ATCC 51559, “+++ (+++ = MIC ≦ 4)”; in the experiment on E. faecalis ATCC 29212, “+++ (+++ = MIC ≦ 4)”; with S. pneumoniae ATCC 51422, “+++ (+++ = MIC ≦ 4)”. For the same compound, the “Minimum Inhibitory Concentration (MIC)” value (in the experiment on S. pneumoniae ATCC 49619; in experiment [2]; with S. aureus ATCC 27660) was “+++ (+++ = MIC ≦ 4)” in each case.
As to `Cn1cc(NC(=O)c2cc(NC(=O)c3cc(NC(=O)c4cc5ccccc5cn4)cn3C)c[nH]2)cc1C(=O)NCCN1CCC(F)CC1` [Ib-85], the “Minimum Inhibitory Concentration (MIC)” value with S. aureus ATCC 13709 was “+++ (+++ = MIC ≦ 4)”; in the experiment with B. cereus ATCC 11778, “+++ (+++ = MIC ≦ 4)”; in the experiment with C. albicans ATCC 38247 it was “+ (+ = 12 ≦ MIC ≦ 32)”; with E. faecium ATCC 51559 it was “+++ (+++ = MIC ≦ 4)”; in the experiment on E. faecalis ATCC 29212 it was “+++ (+++ = MIC ≦ 4)”; in the experiment with S. pneumoniae ATCC 51422, “+++ (+++ = MIC ≦ 4)”. The “Minimum Inhibitory Concentration (MIC)” value (in the experiment on S. pneumoniae ATCC 49619; in [2]; in the experiment with S. aureus ATCC 27660) was “+++ (+++ = MIC ≦ 4)” throughout.
With `Cn1cc(NC(=O)c2ccc(NC(=O)c3cc(NC(=O)c4cc5ccccc5cn4)cn3C)cc2)cc1C(=O)NCCN1CCOCC1` [Ic-1], the MIC in the experiment with S. aureus ATCC 13709 (setting [4]) was below 4 µg/mL; with B. cereus ATCC 11778 (Bacillus cereus, ATCC11778, read-out: Minimum Inhibitory Concentration (MIC)) it was below 4 µg/mL; with C. albicans ATCC 38247 (Candida albicans, ATCC38247, read-out: Minimum Inhibitory Concentration (MIC)), above 32 µg/mL; with E. faecium ATCC 51559 (Enterococcus faecium, read-out: Minimum Inhibitory Concentration (MIC)) it was below 4 µg/mL; with E. faecalis ATCC 29212 (Enterococcus faecalis, ATCC29212, read-out: Minimum Inhibitory Concentration (MIC)), below 4 µg/mL; with S. pneumoniae ATCC 51422 (Streptococcus pneumoniae, read-out: Minimum Inhibitory Concentration (MIC)), below 4 µg/mL. In addition, the MIC in the experiment on S. pneumoniae ATCC 49619 (Streptococcus pneumoniae, ATCC49619, read-out: Minimum Inhibitory Concentration (MIC)) is below 4 µg/mL; in experiment [2] (Staphylococcus epidermidis, ATCC12228, read-out: Minimum Inhibitory Concentration (MIC)), below 4 µg/mL; in the experiment with S. aureus ATCC 27660 (setting [4]), below 4 µg/mL.
